These results are taken from patent US10066025B2, “Compositions and methods for detecting, treating and preventing diseases and disorders” (YALE UNIVERSITY, priority 2012, dated 2018).

The test system of the experiment is HK-2 cells. Description: HK-2 cell necrosis induced with 2 mM H2O2 (LDH release). The class given is cell-based, human. As to conditions: at 2 and 4 hrs. How it is done: HK2 cells (human proximal tubular line) obtained from ATTC (Manassas, Va., USA) were cultured in DMEM/F12 supplemented with glutamine, 10% FBS and antibiotics, and were maintained at 37° C. in 5% CO2. Cells were exposed to cisplatin (20 μM) in the presence or absence of renalase for 24 hrs, and cell viability was assessed by the WST1 method (Roche Applied Science, Germany). Cells were then harvested in RIPA buffer (20 mM Tris-HCl pH 7.5, 150 mM NaCl, 1 mM Na2EDTA, 1 mM EGTA, 1% NP-40, 1% sodium deoxycholate, 2.5 mM sodium pyrophosphate, 1 mM β-glycerophosphate, 1 mM Na3VO4, 1 μg/ml leupeptin) supplemented with a protease and phosphatase inhibitor cocktail (Roche Applied Science, Germany). Proteins were separated by SDS-PAGE and Western blotting was carried out using the following antibodies: anti-renalase monoclonal (Desir et al., 2012, J Am Heart Assoc. 1:e002634; (Lee et al., 2013, J Am Soc Nephrol 24:445-455); anti caspase 3 (Cell Signaling Technology, MA, USA) and anti Bcl2 (Thermo Scientific, USA). Necrotic injury in HK-2 cells (ATCC, Manassas, Va.) was induced with exposure to 2 mM H2O2 for 2-8 hr and lactate dehydrogenase (LDH) released into cell culture media was measured as described using a commercial LDH assay kit (Promega, Madison, Wis.) (Lee and Emala, 2002, American journal of physiology. Renal physiology 282:F844-852).

For “RP H220: histidine tagged RP-220, SEQ ID NO: 4, HHHHHHCIRFVSIDNKKRNIESSEIG (listed as Homo sapiens)”, the “necrosis induced with 2 mM H2O2” value is given as “significantly reduced necrosis”.
